# Measurements as given in patent publication US7939639B2, “Functional role of adrenomedullin (AM) and the gene related product (PAMP) in human pathology and physiology” (The United States of America as represented by the …, priority 1995, dated 2011).
# Entries after “also recorded” stand apart in the source; their conditions may differ. Where two headings read alike, the source gives them in different places. Ends that are not written are not given here.
# How the values were obtained:
# E. coli [1] = test: Microdilutional timed kill assay, E. coli; type: cell-based, Escherichia coli; conditions: for growth inhibitory activity against E. coli, comparative: microdilution, 6 hours, FIG. 22
# Method: (§1) Inhibition of growth of E. coli was assessed in a microdilutional timed kill assay. (See FIG. 22) Bacteria and Candida albicans were grown overnight on trypticase soy agar (TSA) and Sobouraud dextrose agar (SDA) plates, respectively, were suspended into RPMI-1640 medium (Bio-Whittaker) and adjusted to a final concentration of 8×10^3 cfu/ml in […] in plastic microdilution trays. AM-related peptides, magainins, and albumin were added in equimolar concentrations ranging from 8 μM to 300 μM. Plates were incubated at 37° C. with gentle agitation over 24 hours. At 6 hr and 24 hr time points, 10 to […] aliquots from each well were quantitatively cultured by serial 100-fold dilutions onto TSA and SDA plates.
# C. albicans = test: Micro-/macrodilutional assay, C. albicans; type: cell-based, Candida albicans
# Method: as §1, with “AM-related peptides, magainins, and albumin were added in equimolar concentrations ranging from 8 μM to 300 μM.” left out
# (§2) Data were compiled from six experiments. Macrodilution assays were performed in 12×75 mm borosilicate glass tubes. Organisms were grown and harvested, as described in Roilides, E., et al., J Infect Dis. 163:579 (1991), and adjusted to a final inoculum concentration of 8×10^3 cfu/ml in 400 μl. […] Tubes were incubated at 37° C. with gentle agitation over 24 hours. At 6 and 24 hour time points, 100 μl aliquots from each tube were quantitatively cultured by serial 100-fold dilutions onto TSA and SDA plates.
# E. coli [2] = test: Macrodilution assay, E. coli; type: cell-based, Escherichia coli; conditions: for antimicrobial activity, macrodilution, 6 hours: 6 hours incubation
# Method: as §2
# [3] = tested on: E. coli, P. aeruginosa, C. albicans, S. aureus; test: Antimicrobial dilution assays against bacterial and fungal pathogens; type: cell-based; conditions: microdilutional assay
# Method: In order to assess the antimicrobial activity of AM and its gene related peptides, both microdilution and macrodilution assays were performed against Escherichia coli (E. coli), Staphylococcus aureus (S. aureus), Pseudomonas aeruginosa (P. aeruginosa) and Candida albicans (C. albicans). A germination assay was also performed in order to further assess anti-candidal activity (Ghannoum, M. A. and Radwan, S. S., Candida Adherence to Epithelial Cells. CRC Press; Boca Raton, Fla. 1990 pp. 72-104).
# as §1
# The antimicrobial activity of AM and PAMP was determined in a macrodilution assay after 6 hours of incubation of E. coli. […] Data were compiled from six experiments. Macrodilution assays were performed in 12×75 mm borosilicate glass tubes. Organisms were grown and harvested, as described in Roilides, E., et al., J Infect Dis. 163:579 (1991), and adjusted to a final inoculum concentration of 8×10^3 cfu/ml in 400 μl. AM-related peptides, magainins, and albumin were added in equimolar concentrations ranging from 8 μM to 300 μM. Tubes were incubated at 37° C. with gentle agitation over 24 hours. At 6 and 24 hour time points, 100 μl aliquots from each tube were quantitatively cultured by serial 100-fold dilutions onto TSA and SDA plates.
# AM receptors = test: 125I-AM receptor binding, MCF-7; design: species or system human; conditions: MCF-7 as representative cancer line
# Method: j. Receptor Binding: Receptor binding analysis were performed as previously described (Moody, T. W., et al., Proc. Natl. Acad. Sci. U.S.A. 90:4345-4349 (1993)). Briefly, cells (5×10^4) were placed in 24-well plates coated with fibronectin (20 μg). When a monolayer is formed, the cells were washed 4 times in TIS buffer followed by incubation with receptor binding medium (TIS plus 1% BSA and 1 mg/ml bacitracin). […] After washing the cells 4 times in receptor binding buffer at 4° C., they were dissolved in 0.2 N NaOH and counted on a gamma counter.
# AM receptor = test: cAMP assay (RIA), MCF-7; type: cell-based, human; conditions: MCF-7
# Method: k. cAMP Assays: Cyclic AMP was assayed by RIA using a kit obtained from New England Nuclear (Boston, Mass.). […] The supernatants were tested for cAMP using the RIA kit following the manufacturer's instructions.
# P. aeruginosa = test: Micro-/macrodilution timed kill assay, P. aeruginosa; type: cell-based, Pseudomonas aeruginosa; conditions: 24 hours exposure compared with 6 hours incubation
# Method: as §1, with “AM-related peptides, magainins, and albumin were added in equimolar concentrations ranging from 8 μM to 300 μM.” left out
# as §2
# S. aureus = test: Micro-/macrodilutional assays, S. aureus; type: cell-based, Staphylococcus aureus; conditions: microdilutional or macrodilutional assays
# Method: as §1, with “AM-related peptides, magainins, and albumin were added in equimolar concentrations ranging from 8 μM to 300 μM.” left out
# as §2
# Isoelectric point = type: physicochemical
# rat mast cells = conditions: compared with magainin-2 / AM
# RINm cells = test: 125I-AM binding to RINm cells; conditions: 0.2 nM per 5×10^5 cells
# From the text: (§3) A similar mechanism has been described for amylin (R. A. Pittner et al., J. Cell. Biochem. 55S, 19 (1994)).
# NCI-H1264 = test: 125I-AM binding to NCI-H1264 cells; design: species or system human; conditions: 0.2 nM per 5×10^5 cells; NCI-H1264 positive control
# From the text: as §3
substance,measurement,setting,value
Magainin [reference compound],"growth inhibitory activity against E. coli, comparative",E. coli [1],greater inhibitory activity
same,"potency against C. albicans, comparative",C. albicans,more potent than AM and PAMP
same,"antimicrobial activity, macrodilution, 6 hours",E. coli [2]; E. coli,moderate activity
same,"antimicrobial activity, macrodilution, 24 hours","E. coli [2]; E. coli, 24 hours incubation",significantly greater in antimicrobial activity than either AM or PAMP; also recorded: more potent than either AM
same,optical clarity of bacterial suspension,E. coli [2]; macrodilution,optically clear suspension of bacteria
"Y-G-G-H-Q-I-Y-Q-F-T-D-K-D-NH2 (YGGHQIYQFTDKD-NH2) [PO71, ID; NO]",activity against these pathogens,[3],little or no activity
TVQKLAHQIYQFTDKDKDNVAPRSKISPQGY-NH2 [PO72],competition for 125I-AM binding,AM receptors,not competitively blocked
same,effect on cAMP,AM receptor,no effect
same,activity against these pathogens,[3],little or no activity
"Y-Y-W-N-K-W-A-L-S-R-NH2 (YYWNKWALSR-NH2) [PO70, ID; NO]",activity against these pathogens,[3],little or no activity
"ARLDVASEFRKKWNKWALSR-NH2 [PAMP-20, ARLDVASEFRKKWNKWALSR-NH2]",competition for 125I-AM binding,AM receptors,not competitively blocked
same,effect on cAMP,AM receptor,no effect
same,activity against E. coli,E. coli [1]; after 6 hours of incubation,activity
same,"growth inhibitory activity against E. coli, comparative",E. coli [1],higher growth inhibitory activity than albumin
same,"antimicrobial activity against P. aeruginosa, 24 hours versus 6 hours",P. aeruginosa,greater antimicrobial activity
same,antimicrobial effect against C. albicans,C. albicans,79.7%±2.4
same,activity against C. albicans,C. albicans; after 6 hours of incubation,activity
same,growth suppressive activity against S. aureus,S. aureus,ineffective; also recorded: no apparent growth suppressive activity
same,"antimicrobial activity, macrodilution, 6 hours",E. coli [2]; E. coli,greater activity
same,isoelectric point,Isoelectric point,10.1
same,isoelectric point,Isoelectric point; listed as PAMP,11.1
same,relative potency in inducing histamine release,rat mast cells,twenty times more potent
^125I-AM: iodinated AM ligand (Phoenix Pharmaceuticals),binding of 125I-AM,RINm cells,25 cpm
same,binding of 125I-AM,NCI-H1264,2265 cpm
